Data: US20080261913A1, “Compounds and pharmaceutical compositions for the treatment of liver disorders” (Idenix Pharmaceuticals, Inc., priority 2006, published 2008)
Values joined by “and” are separate entries in the source; they are usually repeats but may differ in a detail not shown here. Equal values may be shown once. Blank lines part the entries; values can stand above or below the compound they belong to.

Key:
[1] = tested on: Primary hepatocyte cultures (human); test: Determination of triphosphate levels in cells, human primary hepatocytes; format: in vitro ADME; settings: general statement on the table of b531, 10 μM drug
Experimental: Freshly isolated cells from animal and human liver were obtained in suspension on ice. Following receipt, cells were pelleted by centrifugation at 500 rpm (rat) or 700 rpm (monkey and human) and resuspended at 0.8 million cells per mL of platting medium (HPM). Multi-well collagen-coated plates (12-well) were then seeded by addition of 1 mL of cell suspention (0.8 million cells/mL). The plates were gently shaken to evenly distribute the cells and placed in an incubator at 37° C. for approximately 4 to 6 hours to allow cells to attach. Once cells have attached, the platting medium was removed and replaced with hepatocyte culture medium (HCM). Cells were left overnight in an incubator at 37° C. to acclimatize to culture and the medium.
Hepatocyte incubations were conducted in a final volume of 1.0 mL HCM/well (0.8 million cells/mL). HCM from overnight incubation of cells was removed and replaced with fresh HCM, pre-warmed to 37° C., containing 10 μM test article from a stock solution in DMSO (final DMSO concentration was 0.1%). […]
Cellular extracts were prepared by transferring 0.9 mL of extract into 2 mL microfuge tubes followed by centrifugation for 5 min at 14,000 rpm. Approximately 100 μL of the supernatant was transferred to HPLC vials and triphosphate levels determined by LCMS/MS as described below. […]

[2] = tested on: Primary hepatocytes (human); test: In vitro phosphorylation in hepatocytes (LddA-TP formation), human; format: in vitro ADME
Experimental: (§1) Measurements of the concentration of 2′-3′-dideoxyadenosine-5′-triphosphate (ddATP) (the triphosphate nucleotide of 2′-3′-dideoxyadenosine (ddA) are performed by liquid chromatography tandem mass spectrometry (LC/MS/MS), e.g., of methanolic extracts of hepatocytes.
(§2) The concentration of ddATP is measured by comparison to a standard curve. Working stock solutions of TP-ddA are prepared from a […] stock solution in de-ionized water of ddATP (tetrasodium salt of >91% purity) purchased from Sigma Chemical Co as follows:
(§3) HPLC is conducted on Phenomenex Luna Amino 3 μm 100 A, 30×2 mm column, with a mobile phase: A: 70% 10 mM NH4OAc 30% ACN pH 6.0; and B: 70% 1 mM NH4OAc 30% ACN pH 10.5 as follows:
(§4) Primary hepatocytes (Rat, Cynomolgus Monkey or human) were seeded at 0.8×10^6 in a collagen-coated 12-well plate and allowed to attach 4-6 hours after which time the seeding medium was replaced with serum-free culture medium and cells allowed to acclimatize to the new medium overnight. On the next day, cells were exposed for 1, 4, 8 and 24 hours to test article A550 (NM204) at 10 and 50 μM prepared in fresh culture medium from stock solution in DMSO (final DMSO concentration was 0.1%). At each time point, an aliquot (500 μl) was collected and immediately added to 500 μl of acetonitrile and stored at −20° C. until analysis. The remaining exposure medium was removed and the cell monolayer (stuck to dish) washed 2 times with ice-cold PBS. Any remaining PBS was carefully removed by aspiration and cells were harvested by scraping in 1 mL 70% ice-cold methanol. Cell samples were placed overnight at −20° C. and cellular debris removed by centrifugation on the next day. The supernatants were removed and filtered prior to analysis by LC/MS. A standard curve was prepared by using untreated cells processed similarly except that prior to harvesting in 70% methanol, 10 μl of LddATP standard solutions prepared in methanol were added to the washed monolayers. These control samples were then processed and analyzed as described for test samples.

[3] = tested on: Primary hepatocytes (Cynomolgus Monkey); test: In vitro phosphorylation in hepatocytes (LddA-TP formation), monkey; format: in vitro ADME
Experimental: as §1, §2, §3, §4

[4] = tested on: Primary hepatocytes (Rat); test: In vitro phosphorylation in hepatocytes (LddA-TP formation), rat; format: in vitro ADME
Experimental: as §1, §2, §3, §4

[5] = In vivo studies in rat: A550 and LddATP measured in livers after IV or oral dose; settings: male rat liver
Experimental: Distribution of A550 (NM-204) (the compound of Example 1 (Hydroxy-tBuSATE N-benzylphosphoroamidate derivative of L-ddA) in the rat liver was evaluated following a single intravenous (I.V.) or oral administration of A550 (NM-204) at a dose of 20 (oral) or 10 (I.V.) mg/Kg body weight. The dose solutions were prepared on the same day prior to dose administration.
At the specified time point (1 and 3 hours for IV animals or 1, 3 and 8 hours for oral animals), each animal was euthanized by CO2 gas followed by exsanguination via the abdominal vein. Livers were collected immediately after sacrifice, flash frozen in liquid nitrogen, placed on dry ice, and later stored at −70° C., before being analyzed.
Control rat liver samples were taken from whole frozen livers (Bioreclamation, Inc. Hicksville, N.Y.) with the aid of a tissue coring utensil (Harris Unicore, 8.0 mm, VWR). Each ˜0.1 g sample was placed in individual 2 mL poly vials with 0.940 mL of 80% MeOH/20% DIH2O and homogenates were prepared using a mechanical tissue disruptor (Tissue Master, Omni-International, Inc, Marietta Ga.). The vials received a 10 μl aliquot of a working stock solution and a 50 μl aliquot of the ISTD before vortexing for ˜30 sec. The mixtures were stored overnight at −20° C. and the next day were removed for 10 min of centrifugation in a benchtop centrifuge. Each supernatant was transferred to individual centrifugation filtration units (0.45 μm) and the resulting filtrates were transferred to HPLC vials for the LC/MS/MS analysis. The final concentrations of ddATP in the calibration standards was 1000, 500, 250, 125, 50, and 0 pmol/ml. Each calibration standard was directly injected in a 50 μL volume onto the ion-exchange column for analysis. Standard curve analysis of calibration standards from control liver extracts was conducted.
Analysis of ddATP was done by an ion-exchange chromatography method with on-line positive ionization ESI-MS/MS detection in multiple reaction monitoring (MRM) detection mode. […] This is equivalent to a range of […] per gram liver by the sample preparation employed. The HPLC MS MS conditions described in Example 5 were utilized.

[6] = IV dose 10 mg/kg, 1 hr, individual animals, 10 mg/kg
[7] = IV dose 10 mg/kg, 3 hrs, individual animals, 10 mg/kg
[8] = Oral dose 20 mg/kg, 1 hr, individual animals, 20 mg/kg
[9] = Oral dose 20 mg/kg, 3 hrs, Mean
[10] = Oral dose 20 mg/kg, 3 hrs, individual animals, 20 mg/kg
[11] = Oral dose 20 mg/kg, 8 hrs, Mean
[12] = Oral dose 20 mg/kg, 8 hrs, individual animals, 20 mg/kg

levels of intracellular triphosphate as compared to those for NM107 [1]: much higher
Compound: CC(C)(CO)C(=O)SCCOP(=O)(NCc1ccccc1)OC[C@H]1O[C@@H](n2ccc(N)nc2=O)[C@](C)(O)[C@@H]1O (mixture of isomers) [Example B102, Hydroxy-tBuSATE N-Benzylphosphoroamidate Derivative of 2′-C-methylcytidine]

Compound: Hydroxy-tBuSATE N-benzylphosphoroamidate derivative of L-ddA [Example A550]
LddA TP Levels ([2]; 10 μM, 1 hour): 161.5 pmol/million cells
LddA TP Levels ([2]; 10 μM, 4 hours): 312.5 pmol/million cells
LddA TP Levels ([2]; 10 μM, 8 hours): 352.5 pmol/million cells
LddA TP Levels ([2]; 10 μM, 24 hours): 366.0 pmol/million cells
LddA TP Levels ([2]; 50 μM, 1 hour): 682.5 pmol/million cells
LddA TP Levels ([2]; 50 μM, 4 hours): 1480.0 pmol/million cells
LddA TP Levels ([2]; 50 μM, 8 hours): 1930.0 pmol/million cells
LddA TP Levels ([2]; 50 μM, 24 hours): 2062.5 pmol/million cells
LddA TP Levels ([3]; 10 μM, 1 hour): 287.5 pmol/million cells
LddA TP Levels ([3]; 10 μM, 4 hours): 978.0 pmol/million cells
LddA TP Levels ([3]; 10 μM, 8 hours): 1230.0 pmol/million cells
LddA TP Levels ([3]; 10 μM, 24 hours): 344.0 pmol/million cells
LddA TP Levels ([3]; 50 μM, 1 hour): 2085.0 pmol/million cells
LddA TP Levels ([3]; 50 μM, 4 hours): 5690.0 pmol/million cells
LddA TP Levels ([3]; 50 μM, 8 hours): 6030.0 pmol/million cells
LddA TP Levels ([3]; 50 μM, 24 hours): 3030.0 pmol/million cells
LddA TP Levels ([4]; 10 μM, 1 hour): 159.5 pmol/million cells
LddA TP Levels ([4]; 10 μM, 4 hours): 388.0 pmol/million cells
LddA TP Levels ([4]; 10 μM, 8 hours): 468.5 pmol/million cells
LddA TP Levels ([4]; 10 μM, 24 hours): 422.0 pmol/million cells
LddA TP Levels ([4]; 50 μM, 1 hour): 393.0 pmol/million cells
LddA TP Levels ([4]; 50 μM, 4 hours): 1212.0 pmol/million cells
LddA TP Levels ([4]; 50 μM, 8 hours): 1590.0 pmol/million cells
LddA TP Levels ([4]; 50 μM, 24 hours): 1505.0 pmol/million cells
Concentration Compound (Ex 1) ([5]; IV dose 10 mg/kg, 1 hr, Mean): 80.0 pmol/g liver
Concentration. ddA-TP ([5]; IV dose 10 mg/kg, 1 hr, Mean): 1770 pmol/g liver
Concentration. ddA-TP ([5]; IV dose 10 mg/kg, 1 hr, Mean, via hepatocellularity number): 15.5 pmol/10^6 cells
Concentration Compound (Ex 1) [5, 6]: 85.1 pmol/g liver and 65.8 pmol/g liver and 89.1 pmol/g liver
Concentration. ddA-TP [5, 6]: 1355 pmol/g liver and 2025 pmol/g liver and 1930 pmol/g liver
Concentration. ddA-TP ([5]; IV dose 10 mg/kg, 1 hr, individual animals, via hepatocellularity number, 10 mg/kg): 11.9 pmol/10^6 cells and 17.8 pmol/10^6 cells and 16.9 pmol/10^6 cells
Concentration Compound (Ex 1) ([5]; IV dose 10 mg/kg, 3 hrs, Mean): 27.9 pmol/g liver
Concentration. ddA-TP ([5]; IV dose 10 mg/kg, 3 hrs, Mean): 2092 pmol/g liver
Concentration. ddA-TP ([5]; IV dose 10 mg/kg, 3 hrs, Mean, via hepatocellularity number): 18.3 pmol/10^6 cells
Concentration Compound (Ex 1) [5, 7]: 28.3 pmol/g liver and 26.0 pmol/g liver and 29.3 pmol/g liver
Concentration. ddA-TP [5, 7]: 1345 pmol/g liver and 1940 pmol/g liver and 2990 pmol/g liver
Concentration. ddA-TP ([5]; IV dose 10 mg/kg, 3 hrs, individual animals, via hepatocellularity number, 10 mg/kg): 11.8 pmol/10^6 cells and 17.0 pmol/10^6 cells and 26.2 pmol/10^6 cells
Concentration Compound (Ex 1) ([5]; Oral dose 20 mg/kg, 1 hr, Mean): 251 pmol/g liver
Concentration. ddA-TP ([5]; Oral dose 20 mg/kg, 1 hr, Mean): 395 pmol/g liver
Concentration. ddA-TP ([5]; Oral dose 20 mg/kg, 1 hr, Mean, via hepatocellularity number): 3.5 pmol/10^6 cells
Concentration Compound (Ex 1) [5, 8]: 411 pmol/g liver and 272 pmol/g liver and 70.2 pmol/g liver
Concentration. ddA-TP [5, 8]: 210 pmol/g liver and 575 pmol/g liver and 400 pmol/g liver
Concentration. ddA-TP ([5]; Oral dose 20 mg/kg, 1 hr, individual animals, via hepatocellularity number, 20 mg/kg): 1.8 pmol/10^6 cells and 5.0 pmol/10^6 cells and 3.5 pmol/10^6 cells
Concentration Compound (Ex 1) [5, 9]: 204 pmol/g liver
Concentration. ddA-TP [5, 9]: 312 pmol/g liver
Concentration. ddA-TP ([5]; Oral dose 20 mg/kg, 3 hrs, Mean, via hepatocellularity number): 2.7 pmol/10^6 cells
Concentration Compound (Ex 1) [5, 10]: 360 pmol/g liver and 92.1 pmol/g liver and 161 pmol/g liver
Concentration. ddA-TP [5, 10]: 200 pmol/g liver and 330 pmol/g liver and 405 pmol/g liver
Concentration. ddA-TP ([5]; Oral dose 20 mg/kg, 3 hrs, individual animals, via hepatocellularity number, 20 mg/kg): 1.8 pmol/10^6 cells and 2.9 pmol/10^6 cells and 3.6 pmol/10^6 cells
Concentration Compound (Ex 1) [5, 11]: 20.1 pmol/g liver
Concentration. ddA-TP [5, 11]: 382 pmol/g liver
Concentration. ddA-TP ([5]; Oral dose 20 mg/kg, 8 hrs, Mean, via hepatocellularity number): 3.3 pmol/10^6 cells
Concentration Compound (Ex 1) [5, 12]: 16.4 pmol/g liver and 28 pmol/g liver and 16.2 pmol/g liver
Concentration. ddA-TP [5, 12]: 280 pmol/g liver and 805 pmol/g liver and 275 pmol/g liver
Concentration. ddA-TP ([5]; Oral dose 20 mg/kg, 8 hrs, individual animals, via hepatocellularity number, 20 mg/kg): 2.5 pmol/10^6 cells and 5.2 pmol/10^6 cells and 2.4 pmol/10^6 cells
